Assay results from ChEMBL document CHEMBL4680164, “Synthesis and antimycobacterial activity of thiazolidine-2,4-dione based derivatives with halogenbenzohydrazones and pyridinecarbohydrazones substituents” (Eur J Med Chem, 2020).
≈ marks a conversion by molar mass, not a printed value.

Assays:
[1] = tested on: Mycobacterium tuberculosis; assay: Antitubercular activity against Mycobacterium tuberculosis H37Ra ATCC 25177 assessed as reduction in microbial growth after 7 days by Alamar blue assay; type: functional; conditions: H37Ra ATCC 25177, 168 h, time 7 day
Vero = assay: Cytotoxicity against African green monkey Vero cells incubated for 24 hrs by MTT assay; type: cell-based; conditions: Chlorocebus sabaeus
[2] = Selectivity index, ratio of IC50 for cytotoxicity against African green monkey Vero cells to MIC for antimycobacterial activity against Mycobacterium tuberculosis H37Ra ATCC 25177; type: toxicity, cell-based; conditions: read-out: Selectivity Index
[3] = Stability of compound in acetonitrile at 4.76 10^-5mol/L after 48 hrs by HPLC-DAD method; type: physicochemical; conditions: at 47.6 µM
[4] = Stability of compound in acetonitrile assessed as retention time at 4.23 10^-5mol/L up to 48 hrs by HPLC-DAD method; type: physicochemical
[5] = Stability of compound in acetonitrile at 4.23 10^-5mol/L after 48 hrs by HPLC-DAD method; type: physicochemical; conditions: at 42.3 µM
[6] = Stability of compound in acetonitrile at 6.05 10^-5mol/L after 48 hrs by HPLC-DAD method; type: physicochemical; conditions: at 60.5 µM
[7] = Stability of compound in acetonitrile assessed as retention time at 6.05 10^-5mol/L up to 48 hrs by HPLC-DAD method; type: physicochemical
[8] = Stability of compound in acetonitrile at 4.81 10^-5mol/L after 48 hrs by HPLC-DAD method; type: physicochemical; conditions: at 48.1 µM
[9] = Stability of compound in acetonitrile assessed as retention time at 4.81 10^-5mol/L up to 48 hrs by HPLC-DAD method; type: physicochemical
[10] = Stability of compound in acetonitrile assessed as retention time at 4.52 10^-5mol/L up to 48 hrs by HPLC-DAD method; type: physicochemical
[11] = Stability of compound in acetonitrile at 4.52 10^-5mol/L after 48 hrs by HPLC-DAD method; type: physicochemical; conditions: at 45.2 µM
[12] = Stability of compound in acetonitrile at 6.48 10^-5mol/L after 48 hrs by HPLC-DAD method; type: physicochemical; conditions: at 64.8 µM
[13] = Stability of compound in acetonitrile assessed as retention time at 6.48 10^-5mol/L up to 48 hrs by HPLC-DAD method; type: physicochemical
[14] = Stability of compound in acetonitrile assessed as retention time at 6 10^-5mol/L up to 48 hrs by HPLC-DAD method; type: physicochemical
[15] = Stability of compound in acetonitrile at 6 10^-5mol/L after 48 hrs by HPLC-DAD method; type: physicochemical; conditions: at 60 µM

With `COc1cc(/C=N/NC(=O)c2ccncc2)ccc1OC(=O)CC1SC(=O)NC1=O` (stereo not drawn) the MIC [1] was 1 µg/mL, the IC50 (Vero) was 203 µg/mL (≈ 475 µM) and the selectivity ratio [2] was 203. The Stabilty [3] was “Stable”.
For `O=C(CC1SC(=O)NC1=O)Oc1ccc(/C=N/NC(=O)c2ccncc2)cc1Br` (stereo not drawn), the MIC [1] was 1 µg/mL, the Retention_time [4] was 8.8 min and the Stabilty [5] was “Stable”. It also gave an IC50 (Vero) of 190 µg/mL (≈ 398 µM) and a selectivity ratio [2] of 190.
For `O=C(/C=C1/SC(=O)NC1=O)Oc1ccccc1/C=N/NC(=O)c1ccncc1`, the MIC [1] was 4 µg/mL, the Stabilty [6] was “Stable” and the IC50 (Vero) was > 200 µg/mL. For the same compound, the selectivity ratio [2] was > 50 and the Retention_time [7] was 4.36 min.
`O=C(/C=C1/SC(=O)NC1=O)Oc1ccccc1/C=N/NC(=O)c1ccccn1` showed an MIC [1] of 16 µg/mL.
With `COc1cc(/C=N/NC(=O)c2cccc(Cl)c2)ccc1OC(=O)/C=C1/SC(=O)NC1=O` the MIC [1] was 128 µg/mL.
For `O=C(CC1SC(=O)NC1=O)Oc1ccc(/C=N/NC(=O)c2ccncc2)cc1Cl` (stereo not drawn), the MIC [1] was 1 µg/mL, the Stabilty [8] was “Stable” and the IC50 (Vero) was 31.9 µg/mL (≈ 73.7 µM). It also gave a selectivity ratio [2] of 31.9 and a Retention_time [9] of 7.59 min.
With `CCOc1cc(/C=N/NC(=O)c2cccnc2)ccc1OC(=O)CC1SC(=O)NC1=O` (stereo not drawn) the MIC [1] was > 512 µg/mL.
With `COc1cc(/C=N/NC(=O)c2ccc(Cl)cc2Cl)ccc1OC(=O)CC1SC(=O)NC1=O` (stereo not drawn) the MIC [1] was 128 µg/mL.
Work on `O=C(CC1SC(=O)NC1=O)Oc1ccc(/C=N/NC(=O)c2cccnc2)cc1Br` (stereo not drawn) yielded an MIC [1] of 512 µg/mL.
Work on `CN[C@@H]1[C@H](O[C@H]2[C@H](O[C@H]3[C@H](O)[C@@H](O)[C@H](N=C(N)N)[C@@H](O)[C@@H]3N=C(N)N)O[C@@H](C)[C@]2(O)C=O)O[C@@H](CO)[C@H](O)[C@H]1O` [STREPTOMYCIN] yielded an MIC [1] of 0.5 µg/mL.
`COc1cc(/C=N/NC(=O)c2cccc(Cl)c2)ccc1OC(=O)CC1SC(=O)NC1=O` (stereo not drawn) showed an MIC [1] of 128 µg/mL.
For `O=C(CC1SC(=O)NC1=O)Oc1cccc(/C=N/NC(=O)c2cccc(Cl)c2)c1` (stereo not drawn), the MIC [1] was 128 µg/mL.
Work on `CO[C@H]1/C=C/O[C@@]2(C)Oc3c(C)c(O)c4c(O)c(c(/C=N/N5CCN(C)CC5)c(O)c4c3C2=O)NC(=O)/C(C)=C\C=C\[C@H](C)[C@H](O)[C@@H](C)[C@@H](O)[C@@H](C)[C@H](OC(C)=O)[C@@H]1C` [RIFAMPIN] yielded an MIC [1] of 0.004 µg/mL, an IC50 (Vero) of 138 µg/mL (≈ 167 µM) and a selectivity ratio [2] of 34400.
Compound `O=C(/C=C1/SC(=O)NC1=O)Oc1ccccc1/C=N/NC(=O)c1cccc(Cl)c1` has an MIC [1] of 64 µg/mL.
Work on `O=C(CC1SC(=O)NC1=O)Oc1cccc(/C=N/NC(=O)c2ccc(Cl)cc2Cl)c1` (stereo not drawn) yielded an MIC [1] of 128 µg/mL.
`O=C(CC1SC(=O)NC1=O)Oc1ccc(/C=N/NC(=O)c2ccc(Cl)cc2Cl)cc1` (stereo not drawn) gave an MIC [1] of 64 µg/mL.
With `O=C(CC1SC(=O)NC1=O)Oc1ccc(/C=N/NC(=O)c2cccnc2)cc1Cl` (stereo not drawn) the MIC [1] was 512 µg/mL.
For `CCOc1cc(/C=N/NC(=O)c2ccncc2)ccc1OC(=O)CC1SC(=O)NC1=O` (stereo not drawn), the MIC [1] was 1 µg/mL, the Retention_time [10] was 7.64 min and the Stabilty [11] was “Stable”. It also gave an IC50 (Vero) of 50.9 µg/mL (≈ 115 µM) and a selectivity ratio [2] of 50.9.
Compound `O=C(CC1SC(=O)NC1=O)Oc1ccc(/C=N/NC(=O)c2cccnc2)cc1` (stereo not drawn) has an MIC [1] of 512 µg/mL.
For `CCOc1cc(/C=N/NC(=O)c2ccccn2)ccc1OC(=O)CC1SC(=O)NC1=O` (stereo not drawn), the MIC [1] was > 512 µg/mL.
For `O=C(CC1SC(=O)NC1=O)Oc1ccc(/C=N/NC(=O)c2ccc(Cl)cc2)cc1` (stereo not drawn), the MIC [1] was 128 µg/mL.
`CC[C@@H](CO)NCCN[C@@H](CC)CO` [ETHAMBUTOL] gave an MIC [1] of 2 µg/mL.
In the case of `O=C(CC1SC(=O)NC1=O)Oc1ccc(/C=N/NC(=O)c2ccncc2)cc1` (stereo not drawn), the MIC [1] is reported as 1 µg/mL, the Stabilty [12] is reported as “Stable” and the Retention_time [13] is reported as 3.48 min. For the same compound, the IC50 (Vero) was 91.7 µg/mL (≈ 230 µM) and the selectivity ratio [2] was 91.7.
With `NNC(=O)c1ccncc1` [ISONIAZID] the MIC [1] was 0.25 µg/mL.
With `O=C(CC1SC(=O)NC1=O)Oc1ccc(/C=N/NC(=O)c2cccc(Cl)c2)cc1` (stereo not drawn) the MIC [1] was 128 µg/mL.
`O=C(/C=C1/SC(=O)NC1=O)Oc1cccc(/C=N\NC(=O)c2ccncc2)c1` gave an MIC [1] of 1 µg/mL, a Retention_time [14] of 4.36 min and an IC50 (Vero) of 143 µg/mL (≈ 361 µM). The selectivity ratio [2] was 143 and the Stabilty [15] was “Stable”.
`O=C(CC1SC(=O)NC1=O)Oc1ccc(/C=N/NC(=O)c2ccc(Br)cc2)cc1` (stereo not drawn) gave an MIC [1] of 256 µg/mL.
Work on `O=C(/C=C1/SC(=O)NC1=O)Oc1ccc(/C=N/NC(=O)c2cccc(Cl)c2)cc1` yielded an MIC [1] of 128 µg/mL.
For `O=C(/C=C1/SC(=O)NC1=O)Oc1ccccc1/C=N/NC(=O)c1cccnc1`, the MIC [1] was 128 µg/mL.
